Results: US9624247B2, “Pyrazolo-pyrrolidin-4-one derivatives as bet inhibitors and their use in the treatment of disease” (NOVARTIS AG, priority 2013, dated 2017)
pIC50: −log10 of the molar value.

How the values were obtained:
Conditions in all cases: acetyl-histone H4 peptide
BRD4 (His-Brd4(44-477)) = BRD4 (His-Brd4(44-477)) (Homo sapiens (Human), UniProt O60885); experiment: TR-FRET in-vitro binding assay for BRD4
BRD2 (His-Brd2(60-472)) = BRD2 (His-Brd2(60-472)) (Homo sapiens (Human), UniProt P25440); experiment: TR-FRET in-vitro binding assay for BRD2
BRD3 (His-Brd3(20-477)) = BRD3 (His-Brd3(20-477)) (Homo sapiens (Human), UniProt Q15059); experiment: TR-FRET in-vitro binding assay for BRD3
BRD3 (His-Brd3(20-477)), sequence (Q15059 20-477): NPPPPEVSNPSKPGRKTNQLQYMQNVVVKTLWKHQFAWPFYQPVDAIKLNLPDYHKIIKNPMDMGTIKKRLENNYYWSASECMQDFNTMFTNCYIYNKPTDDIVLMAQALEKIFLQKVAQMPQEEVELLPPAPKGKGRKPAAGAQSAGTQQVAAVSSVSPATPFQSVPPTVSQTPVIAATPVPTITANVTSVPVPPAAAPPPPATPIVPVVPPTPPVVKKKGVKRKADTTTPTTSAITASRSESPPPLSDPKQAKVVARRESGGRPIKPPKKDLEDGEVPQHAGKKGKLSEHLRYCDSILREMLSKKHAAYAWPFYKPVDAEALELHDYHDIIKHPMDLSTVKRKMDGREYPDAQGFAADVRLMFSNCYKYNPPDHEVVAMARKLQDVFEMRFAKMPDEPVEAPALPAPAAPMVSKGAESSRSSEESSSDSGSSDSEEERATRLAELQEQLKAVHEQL

BRD2 (His-Brd2(60-472)), sequence (P25440 60-472): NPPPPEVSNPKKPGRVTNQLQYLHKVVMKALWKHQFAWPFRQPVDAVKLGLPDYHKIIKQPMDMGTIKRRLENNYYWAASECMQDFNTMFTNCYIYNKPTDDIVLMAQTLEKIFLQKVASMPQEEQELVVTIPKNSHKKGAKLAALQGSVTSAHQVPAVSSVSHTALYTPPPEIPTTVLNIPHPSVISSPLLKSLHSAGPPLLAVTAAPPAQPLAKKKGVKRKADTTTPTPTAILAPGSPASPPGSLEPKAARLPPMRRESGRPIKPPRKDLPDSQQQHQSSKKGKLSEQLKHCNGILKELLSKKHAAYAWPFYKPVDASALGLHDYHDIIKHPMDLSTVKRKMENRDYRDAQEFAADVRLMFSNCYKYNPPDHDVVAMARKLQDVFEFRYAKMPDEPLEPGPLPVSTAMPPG

| Compound | pIC50 (BRD4 (His-Brd4(44-477))) | pIC50 (BRD2 (His-Brd2(60-472))) | pIC50 (BRD3 (His-Brd3(20-477))) |
| --- | --- | --- | --- |
| COCCn1nc(C2CC2)c2c1C(c1ccc(Cl)cc1)N(c1cc(C)c3nnc(C)n3c1)C2=O (racemic) [Example 4, 6-(4-chlorophenyl)-3-cyclopropyl-5-(3,8-dimethyl-[1,2,4]triazolo[4,3-a]pyridin-6-yl)-1-(2-methoxyethyl)-5,6-dihydropyrrolo[3,4-c]pyrazol-4(1H)-one] | > 7.96 | 7.77 | > 7.96 |
| Cc1nnc2c(NC(=O)OC(C)(C)C)cc(N3C(=O)c4c(C5CC5)nn(C)c4C3c3ccc(Cl)cc3)cn12 (stereo not drawn) [Example 27, tert-butyl (6-(6-(4-chlorophenyl)-3-cyclopropyl-1-methyl-4-oxopyrrolo[3,4-c]pyrazol-5(1H,4H,6H)-yl)-3-methyl-[1,2,4]triazolo[4,3-a]pyridin-8-yl)carbamate] | 7.44 | 7.33 | 7.19 |
| COc1cc(N2C(=O)c3c(C4CC4)nn(C)c3C2c2ccc(Cl)cc2)cc2c1nnn2C (stereo not drawn) [Example 6] | 7.66 | 7.42 | 7.60 |
| Cc1cc(N2C(=O)c3c(C4CC4)nn(C)c3[C@H]2c2ccc(Cl)cc2)cn2c(C(F)F)nnc12 [Example 7, (R)-6-(4-chlorophenyl)-3-cyclopropyl-5-(3-(difluoromethyl)-8-methyl-[1,2,4]triazolo-[4,3-a]pyridin-6-yl)-1-methyl-5,6-dihydropyrrolo[3,4-c]pyrazol-4(1H)-one] | > 7.96 | 7.89 | 7.92 |
| CCOC(=O)Nc1cc(N2C(=O)c3c(C4CC4)nn(C)c3C2c2ccc(Cl)cc2)cn2c(C)nnc12 (stereo not drawn) [Example 29, ethyl (6-(6-(4-chlorophenyl)-3-cyclopropyl-1-methyl-4-oxopyrrolo[3,4-c]pyrazol-5-(1H,4H,6H)-yl)-3-methyl-[1,2,4]triazolo[4,3-a]pyridin-8-yl)carbamate] | 7.64 | 7.64 | 7.66 |
| Cc1cc(N2C(=O)c3c(C4CC4)nn(C)c3[C@H]2c2ccc(Cl)cc2)cn2c(C)nnc12 [Example 2, (R)-6-(4-chlorophenyl)-3-cyclopropyl-5-(3,8-dimethyl-[1,2,4]triazolo[4,3-a]pyridin-6-yl)-1-methyl-5,6-dihydropyrrolo[3,4-c]pyrazol-4(1H)-one] | > 7.96 | 7.96 | 7.92 |
| COCCn1nc(C2CC2)c2c1C(c1ccc(Cl)cc1)N(c1cc(C)c3nnc(CF)n3c1)C2=O (stereo not drawn) [Example 18, 6-(4-chlorophenyl)-3-cyclopropyl-5-(3-(fluoromethyl)-8-methyl-[1,2,4]triazolo[4,3-a]-pyridin-6-yl)-1-(2-methoxyethyl)-5,6-dihydropyrrolo[3,4-c]pyrazol-4(1H)-one] | 7.60 | 7.48 | 7.62 |
| Cc1cc(N2C(=O)c3c(C4CC4)nn(C)c3C2c2ccc(Cl)cc2)cn2c(CF)nnc12 (racemic) [Example 16, 6-(4-chlorophenyl)-3-cyclopropyl-5-(3-(fluoromethyl)-8-methyl-[1,2,4]triazolo[4,3-a]-pyridin-6-yl)-1-methyl-5,6-dihydropyrrolo[3,4-c]pyrazol-4(1H)-one] | 7.82 | 7.80 | 7.89 |
| Cc1cc(N2C(=O)c3c(C4CC4)nn(C)c3C2c2ccc(Cl)cc2)cn2c(C)nnc12 (stereo not drawn) [Example 1, 6-(4-chlorophenyl)-3-cyclopropyl-5-(3,8-dimethyl-[1,2,4]triazolo[4,3-a]pyridin-6-yl)-1-methyl-5,6-dihydropyrrolo[3,4-c]pyrazol-4(1H)-one] | 7.62 | 7.54 | 7.51 |
| COc1cc(N2C(=O)c3c(C4CC4)nn(C)c3C2c2ccc(Cl)cc2)cn2c(C)nnc12 (racemic) [Example 5, 6-(4-chlorophenyl)-3-cyclopropyl-5-(8-methoxy-3-methyl-[1,2,4]triazolo[4,3-a]pyridin-6-yl)-1-methyl-5,6-dihydropyrrolo[3,4-c]pyrazol-4(1H)-one] | 7.55 | 7.27 | 7.36 |
| Cc1cc(N2C(=O)c3c(C4CC4)nn(C)c3C2c2ccc(Cl)cc2)cn2c(C(F)F)nnc12 (racemic) [Example 3, 6-(4-chlorophenyl)-3-cyclopropyl-5-(3-(difluoromethyl)-8-methyl-[1,2,4]triazolo[4,3-a]pyridin-6-yl)-1-methyl-5,6-dihydropyrrolo[3,4-c]pyrazol-4(1H)-one] | > 7.96 | 7.89 | > 7.96 |
